Reference: US20260314599A1, “NEW USE OF PYDIFLUMETOFEN” (SYNGENTA CROP PROTECTION AG, priority 2022, published 2026)
In brackets after ≈: the same amount, converted by molar mass. Several values for one entry are separate records, joined by “and”; a condition that tells them apart may be missing. Identical values can stand only once.

Columns and labels:
Ustilaginoidea virens [1] = assay: In vitro activity of pydiflumetofen and other active ingredients against rice false smut, mycelial growth method (Example 2); format: cell-based; conditions: for EC50: mycelial growth, same protocol as Example 1
Method: (§1) Ustilaginoidea virens, the pathogens that cause rice false smut, were isolated from infected rice tissues and stored at 4° C. Pathogen was applied to the PSA plate and incubated at 28° C. for 7 days. Mycelial plugs at the edge of the colony were prepared by hole puncher with a diameter of 5 mm. Pydiflumetofen was dissolved into dimethyl sulfoxide (DMSO) to get 4×10^4 μg/mL for stock solution. Mixing PSA culture medium with stock solution of pydiflumetofen to get different series of concentration: 0, 0.0005, 0.0010, 0.0025, 0.0040, 0.0055, and 0.007 μg/mL. Using the mycelial growth method, the mycelial plugs were shifted to the center of PSA medium plates containing different pydiflumetofen concentrations. […] EC50 values were determined by the fitted regression line of the log-transformed percentage inhibition plotted against the log-transformed fungicide concentration.
Using the same protocol as for Example 1 (above), the activity of pydiflumetofen against rice false smut was compared to that of other fungicidal active ingredients.
EC50 values were determined by the fitted regression line of the log-transformed percentage inhibition plotted against the log-transformed fungicide concentration. The lower the EC50 value, the higher the activity.

Ustilaginoidea virens [2] = assay: In vitro activity against rice false smut by mycelial growth method (Example 1); format: cell-based; conditions: for Average mycelium growth diameter: untreated 35.63; for Mycelium diameter, Average: average of 8, untreated 40.63; for Mycelium diameter: individual replicates 1-8
Method: Example 1-In Vitro Activity of Pydiflumetofen Against Rice False Smut (Caused by Ustilaginoidea Virens) by Mycelial Growth Method
as §1
As stated above, EC50 values were determined by the fitted regression line of the log-transformed percentage inhibition plotted against the log-transformed fungicide concentration. The lower the EC50 value, the higher the activity.

rice false smut [3] = assay: Field trial, efficacy against rice false smut at 77 days after application (Example 4); format: in vivo, Ustilaginoidea virens; conditions: 75 gai/ha
Source text: (§2) • Application Method: Foliar Spray • Water Volume: 450 L/ha • Number of Applications: 1 • Application Timing: BBCH 45-47

rice false smut [4] = assay: Field trial, efficacy against rice false smut at 38 days after application (Example 3); format: in vivo, Ustilaginoidea virens; conditions: 60-75 gai/ha
Source text: as §2
A scale/index of 0 to 9 was used to define the level of disease severity, wherein 0 represents a healthy plant and 9 represents high levels/severe symptoms of disease. Each plant was graded on this 0 to 9 scale and the Disease Index calculated using the following formula:
Disease Index (DI)=[sum(class frequency×scpre of rating class)]/[(total number of plants)×(maximal disease index)]×100.

[5] = Ustilaginoidea virens, read-out: EC50

Molecule: CC(C1CC1)C(O)(Cn1cncn1)c1ccc(Cl)cc1 (stereo not drawn) [Cyproconazole]
- EC50 (Ustilaginoidea virens [1]; [5]): 0.0387 µg/mL (≈ 0.133 µM)

Molecule: OC(Cc1ccccc1Cl)(Cn1nc[nH]c1=S)C1(Cl)CC1 (stereo not drawn) [Prothioconazole]
- EC50 (Ustilaginoidea virens [1]; [5]): 3.11 µg/mL (≈ 9.03 µM)

Molecule: Epoxiconazole
- EC50 (Ustilaginoidea virens [1]): 0.0086 ppm

Molecule: CCCC1COC(Cn2cncn2)(c2ccc(Cl)cc2Cl)O1 (stereo not drawn) [Propiconazole]
- EC50 (Ustilaginoidea virens [1]; [5]): 0.0205 µg/mL (≈ 0.0599 µM)

Molecule: CON(C(=O)c1cn(C)nc1C(F)F)C(C)Cc1c(Cl)cc(Cl)cc1Cl (stereo not drawn) [Pydiflumetofen, 3-(difluoromethyl)-N-methoxy-1-methyl-N-[1-methyl-2-(2,4,6-trichloro-phenyl)ethyl]-1H-pyrazole-4-carboxamide]
- EC50 (Ustilaginoidea virens [1]; [5]): 0.0045 µg/mL (≈ 0.0105 µM)
- activity against Ustilaginoidea virens (in words) (Ustilaginoidea virens [1]; compared to fungicides commonly used to treat rice false smut): very high activity
- Average mycelium growth diameter (Ustilaginoidea virens [2]; 0.0005 μg/mL, 28° C., 14 days): 33.13 mm
- Mycelium diameter, Average (Ustilaginoidea virens [2]; 0.0005 μg/mL, 28° C., 14 days): 38.13 mm
- Mycelium diameter (Ustilaginoidea virens [2]; 0.0005 μg/mL, 28° C., 14 days): 37 mm and 38 mm (5×) and 39 mm (2×)
- Average mycelium growth diameter (Ustilaginoidea virens [2]; 0.0010 μg/mL, 28° C., 14 days): 28.63 mm
- Mycelium diameter, Average (Ustilaginoidea virens [2]; 0.0010 μg/mL, 28° C., 14 days): 33.63 mm
- Mycelium diameter (Ustilaginoidea virens [2]; 0.0010 μg/mL, 28° C., 14 days): 32 mm (2×) and 34 mm (2×) and 33 mm (2×) and 35 mm and 36 mm
- Average mycelium growth diameter (Ustilaginoidea virens [2]; 0.0025 μg/mL, 28° C., 14 days): 20.75 mm
- Mycelium diameter, Average (Ustilaginoidea virens [2]; 0.0025 μg/mL, 28° C., 14 days): 25.75 mm
- Mycelium diameter (Ustilaginoidea virens [2]; 0.0025 μg/mL, 28° C., 14 days): 25 mm (4×) and 26 mm (3×) and 28 mm
- Average mycelium growth diameter (Ustilaginoidea virens [2]; 0.0040 μg/mL, 28° C., 14 days): 19.50 mm
- Mycelium diameter, Average (Ustilaginoidea virens [2]; 0.0040 μg/mL, 28° C., 14 days): 24.50 mm
- Mycelium diameter (Ustilaginoidea virens [2]; 0.0040 μg/mL, 28° C., 14 days): 24 mm (4×) and 25 mm (4×)
- Average mycelium growth diameter (Ustilaginoidea virens [2]; 0.0055 μg/mL, 28° C., 14 days): 17.75 mm
- Mycelium diameter, Average (Ustilaginoidea virens [2]; 0.0055 μg/mL, 28° C., 14 days): 22.75 mm
- Mycelium diameter (Ustilaginoidea virens [2]; 0.0055 μg/mL, 28° C., 14 days): 22 mm (3×) and 23 mm (4×) and 24 mm
- Average mycelium growth diameter (Ustilaginoidea virens [2]; 0.0070 μg/mL, 28° C., 14 days): 7.75 mm
- Mycelium diameter, Average (Ustilaginoidea virens [2]; 0.0070 μg/mL, 28° C., 14 days): 12.75 mm
- Mycelium diameter (Ustilaginoidea virens [2]; 0.0070 μg/mL, 28° C., 14 days): 13 mm (6×) and 12 mm (2×)
- inhibition at 0.0005 µg/mL (Ustilaginoidea virens [2]; Ustilaginoidea virens, 336 h, 0.0005 μg/mL, 28° C., 14 days): 7.02%
- inhibition at 0.001 µg/mL (Ustilaginoidea virens [2]; Ustilaginoidea virens, 336 h, 0.0010 μg/mL, 28° C., 14 days): 19.6%
- inhibition at 0.0025 µg/mL (Ustilaginoidea virens [2]; Ustilaginoidea virens, 336 h, 0.0025 μg/mL, 28° C., 14 days): 41.8%
- inhibition at 0.004 µg/mL (Ustilaginoidea virens [2]; Ustilaginoidea virens, 336 h, 0.0040 μg/mL, 28° C., 14 days): 45.3%
- inhibition at 0.0055 µg/mL (Ustilaginoidea virens [2]; Ustilaginoidea virens, 336 h, 0.0055 μg/mL, 28° C., 14 days): 50.2%
- inhibition at 0.007 µg/mL (Ustilaginoidea virens [2]; Ustilaginoidea virens, 336 h, 0.0070 μg/mL, 28° C., 14 days): 78.2%
- EC50 (Ustilaginoidea virens [2]; Ustilaginoidea virens, 336 h, mycelial growth, PSA, 28° C., 14 days): 0.0037 µg/mL (≈ 0.00867 µM)
- activity against Ustilaginoidea virens (in words) (Ustilaginoidea virens [2]; mycelial growth): very high activity
- control against rice false smut in the field (in words) (rice false smut [3]): good control
- control against rice false smut in the field (in words) (rice false smut [4]): good control

Molecule: CC1(C)CCC(Cc2ccc(Cl)cc2)C1(O)Cn1cncn1 (stereo not drawn) [Metconazole]
- EC50 (Ustilaginoidea virens [1]; [5]): 0.041 µg/mL (≈ 0.128 µM)

Molecule: CC(C)(C)C(O)(CCc1ccc(Cl)cc1)Cn1cncn1 (stereo not drawn) [Tebuconazole]
- EC50 (Ustilaginoidea virens [1]; [5]): 0.0761 µg/mL (≈ 0.247 µM)
